These results are taken from US9670223B2, “Compounds with super-aspirin effects” (SOLVOTRIN THERAPEUTICS LTD., priority 2011, dated 2017).

Entries after “also recorded” stand apart in the source; their conditions may differ.

One data set has as its system washed platelets (WP). The data set can be described thus: Collagen-induced platelet aggregation in washed platelets (light aggregometry). Conditions: for IC50: inhibition of platelet aggregation in response to collagen (5 (unit uncertain)), washed platelets; for effect of eserine on inhibition of collagen-induced aggregation in WP: physostigmine (eserine) 10 μM. On the set-up: IC50: unit of the concentration uncertain. In kind it is cell-based, human. Here is the method: (§1) PRP and WP (2.5×10^8 platelets ml^−1) were prepared from blood. Briefly 36 ml whole blood was collected into 4 ml of 3.15% sodium citrate; this was centrifuged at 250 ¥g for 20 min (with gentle acceleration and deceleration). At this point PRP, which had separated from white blood cells and red blood cells, was gently removed. When WP were required this PRP was centrifuged at 700 g for 10 min (with gentle acceleration and deceleration) in the presence of prostacyclin. The platelet-poor plasma (PPP) was removed and the platelet pellet was washed three times with Tyrode's buffer, before being re-suspended in Tyrode's buffer to a concentration of 2.5 ¥108 platelets/ml.
(§2) Platelet aggregation was measured by light aggregometry. […] Aggregation was initiated by the addition of agonists, and monitored by Aggro-Link software for at least 6 min.
(§3) To study the aggregatory potency of ADP, the concentration-response (0.3-10 μM) curves were generated. Collagen at different concentrations (2-5 μg/ml) was also used to induce platelet aggregation. Submaximal concentrations of agonists, i.e. the concentrations that gave approximately 95% of the maximal aggregation were used to study the effects of inhibitors of aggregation. Aspirin and aspirin prodrugs was incubated for various intervals prior to the addition of aggregating agents.
To study the involvement of plasma BuChE in the activation of ST0701, purified BuChE (3 U/ml) was incubated with WP for 5 min in the aggregometer with stirring at 900 r.p.m. before the addition of the test compounds ST0701 which was incubated with the WP for a further 10 min, prior to the addition of collagen (5 ug/ml).
(§4) Eserine (in DMSO, 10 μM, giving a final concentration≦0.25% DMSO, which pilot studies had determined not to affect platelet aggregation) was preincubated with PRP or WP for 5 min in the aggregometer with stirring at 900 r.p.m. before the addition of test compounds (ST0701-05), which were incubated in PRP or WP for a further 10 min prior to the addition of an agonist (10 μM ADP or 5 μg/ml Collagen) to induce platelet aggregation.
Phenylmethylsulphonylfluoride (PMSF) 20, 50 and 100 μM dissolved in EtOH (<0.2% EtOH, which pilot studies had determined not to affect platelet aggregation) was preincubated in WP in the aggregometer for 5 min with stirring at 900 r.p.m. before the addition of test compound ST0702 to the WP, which was further incubated for 10 min prior to the addition of collagen (2 μg/ml) to induce platelet aggregation.

In data set [1] the test system is platelet rich plasma (PRP). The data set can be described thus: Collagen-induced platelet aggregation in platelet rich plasma (light aggregometry). In kind it is cell-based, human. As for the experimental part: as §1, §2, §3, §4
Data set [2] has as its system platelet rich plasma (PRP). The data set can be described thus: ADP-induced platelet aggregation in PRP. The format is cell-based, human. Conditions: ADP 10 μM, PRP; for effect of ODQ pretreatment on inhibition of ADP induced aggregation: ODQ 10 μM, compounds 100 μM. As for the experimental part:
as §1, §2, §3, §4
1H-[1,2,4]Oxadiazolo[4,3-a]quinoxalin-1-one (ODQ, dissolved in 100% DMSO, used at a final concentration of 10 μM, which gave a final concentration not more than 0.25% DMSO) was preincubated with PRP or WP for 5 min in the aggregometer with stirring at 900 r.p.m. before the addition of test compounds (ST0701-05), which were incubated in PRP or WP for a further 10 min prior to the addition of an agonist (10 μM ADP or 5 μg/ml collagen) to induce platelet aggregation.
Eserine (10 μM) was incubated with PRP for 5 min in the aggregometer with stirring at 900 r.p.m. before the addition of test compound ST0702 salicylate (500 μM), which was incubated in PRP for a further 10 min prior to the addition of the agonist ADP (10 μM) to induce platelet aggregation.

The next data set deals with HT1080 cells. Briefly: Tumour cell-induced platelet aggregation (TCIPA), static conditions, HT1080. In kind it is cell-based, human. The note with it: static, WP, 300 and 500 μM, HT1080 2×10^5/ml. As for the experimental part:
Three human tumor cell lines, 59M ovarian adenocarcinoma, Caco-2 colon adenocarcinoma and HT1080 fibrocarcinoma cells, were obtained from the European Cell Culture Collection. Cell lines were cultured as monolayers in 75 ml culture flasks at 37° C. in a humidified atmosphere with 5% CO2. 59M cells and HT1080 were cultured in Dulbecco's […] (DMEM) supplemented with 10% fetal bovine serum (FBS) and gentamycin (0.05 mg/ml), penicillin (0.06 mg/ml), and streptomycin (0.01 mg/ml). Caco-2 cell line was cultured in Minimum Essential Medium (MEM) supplemented with 20% FBS and the same antibiotics as above. The cells were supplied with fresh medium and subcultured three times each week.
Washed platelet suspensions (2.5×10^11 platelets 1^−1) were prepared from blood an mixed with the anticoagulant sodium citrate (0.315% final concentration).
The interactions between platelets and tumor cells were measured by light aggregometry (Alonso-Escolano et al., 2004; Jurasz et al., 2001b; Radomski et al., 1991). Briefly, washed platelet samples (2.5×10^8/ml) were placed in an eight channel PAP 8 aggregometer (BIO/DATA CORPORATION, Horsham, Pa., U.S.A.) and incubated for 10 min at 37° C., with stirring at 900 r.p.m., prior to the addition of aggregating agents. […] TCIPA was initiated by the addition of cancer cells, and monitored by Aggro-Link software for at least 30 min. For experiments using inhibitors, aggregation was initiated after 10 min preincubation with these compounds.
To study the ability of the aspirin pro-drugs to inhibit TCIPA in WP cancer cell lines such as HT1080 cells (2×10^5/ml), CaCo2 cells (1.5×10^3/ml) or 59M cells (1×10^3/ml) were used in the presence or absence of aspirin nicotinate (ST0702), ISAS, orthonitrate and metanitrate at 300 and 500 μM. Platelet aggregation was initiated in washed platelets (WP) using HT1080 cells (2×10^5/ml), CaCo2 cells (1.5×10^3/ml) or 59M cells (1×10^3/ml). In addition, regular aspirin (300 and 500 uM) was used as control. Results were expressed in percent changes in maximal light transmission, with 100% representing light transmission of platelet medium alone. ST0702 is hydrolyzed by plasma esterases along two pathways liberating both aspirin and 5-nicotinate salicylate (ST0702 salicylate)(metabolite). The latter is further processed to isosorbide-5-nicotinate and eventually to nicotinic acid. The orthonitrate and metanitrate compounds liberate aspirin and nitric oxide (NO). ISAS meanwhile is hydrolysed to aspirin and salicylic acid. Aspirin (300 and 500 μM) was used in control experiments. Results were expressed in percent changes in maximal light transmission, with 100% representing light transmission of platelet medium alone. Further experiments were performed with ST0702 salicylate (500 μM).

Another data set has as its system P-selectin. The data set can be described thus: Flow cytometry of platelet P-selectin during TCIPA induced by 59M cells. In kind it is cell-based, human. The note with it: 300 μM.
The conditions of data set [3]: cited from earlier work; for % Aspirin release: in human plasma, From Reference 7.
Where [4] appears, read: 200 μM in PRP, collagen 5 μg/ml.

For orientation: IC50 means the concentration needed to halve the response being measured. As to `CC(=O)Oc1ccccc1C(=O)O[C@H]1CO[C@H]2[C@@H]1OC[C@H]2OC(=O)c1cccnc1` [ST0702, isosorbide-2-aspirinate-5-nicotinate], in the data set with washed platelets (WP) (Homo sapiens, Platelet), the midpoint of inhibition, the IC50, lay at 154 µM. The “effect of ST0702 on collagen-induced aggregation in WP after PMSF pretreatment” value with washed platelets (WP) (PMSF 50 μM, 20 μM, not significant) is “slightly attenuated”. Also, the “effect of ST0702 on collagen-induced aggregation in WP after PMSF pretreatment” value in the data set with washed platelets (WP) (PMSF 100 μM, ST0702 200 μM (200-300 μM elsewhere in the source), collagen 2 μg/ml) is reported as “significantly attenuated; also recorded: abolished”. In addition, in the data set on washed platelets (WP), the “effect of eserine on inhibition of collagen-induced aggregation in WP” value is recorded as “not abolished”. Moreover, in data set [1] (setting [4]), the “inhibition of aggregation following 0-5 min preincubation” value is listed as “No significant inhibition” and the “preincubation time at which inhibition is maximal” value lay within 15 to 20 min. In data set [2], the “inhibition of ADP (10 μM) induced aggregation in PRP, comparison in words” value is on record as “more efficacious than aspirin” and the “effect of ODQ pretreatment on inhibition of ADP induced aggregation” value is recorded as “increased the inhibition”. Moreover, the “inhibition of TCIPA induced by HT1080” value in the data set with HT1080 cells is “consistently inhibited TCIPA”. The “59M-mediated increase in platelet surface P-selectin” value with P-selectin is “significantly (P<0.01, n=4) inhibited”. Moreover, the “aspirin released in vitro” value in data set [3] (human plasma solution / in-vitro, of available (stoichiometric) aspirin, listed as ISANA) was 40%. Also, in data set [3], the “% Aspirin release” value is on record as 30-45%.
Consider `CC(=O)Oc1ccccc1C(=O)O` [Aspirin], for which the half-maximal inhibitory concentration (IC50) with washed platelets (WP) (Homo sapiens, Platelet) is 35 µM. Moreover, in the data set on washed platelets (WP), half-maximal inhibition (IC50) required 34 µM and the “effect of eserine on inhibition of collagen-induced aggregation in WP” value is “did not affect the inhibitory actions”. In addition, the “effect of eserine on inhibition of collagen-induced aggregation in PRP” value in data set [1] (compounds 300 μM, physostigmine (eserine) 10 μM) is listed as “did not exert significant effects”. Moreover, in data set [2], the “inhibition of ADP (10 μM) induced aggregation in PRP, comparison in words” value was “consistently less inhibition of aggregation than ST0701/02” and the “effect of ODQ pretreatment on inhibition of ADP induced aggregation” value is on record as “increased the inhibition”. Also, the “inhibition of TCIPA induced by HT1080” value in the data set on HT1080 cells is “did not exert any significant effect”. Further, in the data set on HT1080 cells (listed as aspirin), the “inhibition of TCIPA induced by HT1080” value is given as “did not exert a significant effect”. Further, the “59M-mediated increase in platelet surface P-selectin” value with P-selectin was “failed to prevent”. The “% Aspirin release” value in data set [3] was 100%.
